# In patent publication US6114572A, “Substituted phenols and thiophenols useful as antioxidant agents” (priority 1997, dated 2000):
# Read-outs that look alike come from different tables or passages of the source.
# Assays:
# [1] = HPLC quantitation of compound and metabolite concentration in rat serum and liver; details: in vivo; for concentration at 96 h: po, 0.3% in diet, 4 days
# Excerpt: (§1) A typical experiment consists of 4-6 groups of rats (N=5 per group) with 1 group being a control which receives no MDL compound and the other groups being treated with 0.3% MDL compound. Some of the compounds are either repeated at 0.3% or evaluated again at the lower dose of 0.1%. House Male Sprague-Dawley rats, 50-100 g, (Harlan Laboratories, Indianapolis, Ind.) in groups of 5, feeding ad libitum water and Purina Rodent chow (#5002) with or without MDL compound as a dietary admixture for 4 days. Make dietary admixtures (0.3%) by mixing 1.2 grams of an MDL compound with 400 grams of Purina rodent chow (#5002). Mix the MDL compound with approximately 50 grams of food using a mortar and pestle. This is added to the remainder of the food and mixed for 3 hours on a rotary mixer. In the morning of day 5, anesthetize non-fasted rats with carbon dioxide, and collect blood by cardiac puncture. Sacrifice rats by cervical dislocation. Record body weights and liver weights in grams. Record food consumption as grams·day^-1 ·rat^-1. Deaths are recorded as mortality. Use aliquots of fresh serum for clinical chemistries, thiobarbituric acid reactive substances (TBARS) and conjugated diene measurements. Freeze aliquots of serum (~0.5 mL) and whole livers at -20° C. for compound and metabolite concentration determination at a later time.
# Determine serum and liver concentrations of parent compound and the metabolites, bisphenol and diphenoquinone, by reverse phase HPLC using a Waters 990 Powerline system. Homegenize livers (1 gram samples) with 5.0 mL PBS, pH 7.4, using a Polytron tissue homogenizer at setting 5 for 20-30 seconds. Extract serum or liver homogenates as follows: add 100 μL of either serum or homogenate to 2.0 mL diethyl ether:ethanol (3:1) while vortexing the tube. Cap the sample tubes and centrifuge for 10 min at 5° C. at 3500 rpm in a Beckman GPKR centrifuge with a GH 3.7 rotor. Transfer the supernatants to clean tubes and dry under N2. Reconstitute samples with 200 μL of acetonitrile:hexane:0.1 M ammonium acetate (90:6.5:3.5, by vol.). Then, inject 100 μL onto a Waters Deltapak C18-300 Å column, and elute with an 83% acetonitrile:17% water mobile phase at a flow rate of 1.5 mL/min. Record absorbances at the wavelengths of 240, 254, and 420nm. Calculate compound concentrations from known quantities of authentic parent compounds after correction for recovery. […]. Calculate concentrations as μg/mL of serum and μg/g of liver.
# Male Sprague-Dawley Rats = test: Serum clinical chemistries in male Sprague-Dawley rats; assay type: in vivo
# Method: Measurement of Antioxidant Activity and Bioavailability of Compounds of Formula (1) By In Vivo Screening in Male Sprague-Dawley Rats
# as §1, with “Some of the compounds are either repeated at 0.3% or evaluated again at the lower dose of 0.1%. House Male Sprague-Dawley rats, 50-100 g, (Harlan Laboratories, Indianapolis, Ind.) in groups of 5, feeding ad libitum water and Purina Rodent chow (#5002) with or without MDL compound as a dietary admixture for 4 days. Make dietary admixtures (0.3%) by mixing 1.2 grams of an MDL compound with 400 grams of Purina rodent chow (#5002).” left out
# Allow blood to clot at room temperature for 30 minutes. Obtain serum after centrifugation for 10 min at 4° C. at 3000 rpm in a Beckman J-6M/E centrifuge with a JS-4.2 rotor. […] Calculate ALP, ALT, and AST as units/L. Calculate cholesterol, triglycerides, and glucose as mg/dL.
# [2] = system: oxidation of serum lipids; test: TBARS assay (oxidation of serum lipids) in male Sprague-Dawley rats; assay type: in vivo; details: feed or water, 96 h, rat serum, 4 days, N = 5, CuSO4-initiated, 3 hr, read-out: TBARS, percent of control
# Method: as §1, with “Some of the compounds are either repeated at 0.3% or evaluated again at the lower dose of 0.1%. House Male Sprague-Dawley rats, 50-100 g, (Harlan Laboratories, Indianapolis, Ind.) in groups of 5, feeding ad libitum water and Purina Rodent chow (#5002) with or without MDL compound as a dietary admixture for 4 days. Make dietary admixtures (0.3%) by mixing 1.2 grams of an MDL compound with 400 grams of Purina rodent chow (#5002).” left out
# In this assay the oxidation of serum lipids is initiated with CuSO4, resulting in the formation of aldehydes, such as malondialdehyde (MDA). Upon incubation with thiobarbituric acid, the absorbance of the aldehydes can be detected at 530-540 nm. […] Measure TBARS as follows: mix 100 μL of serum with 400 μL of a 5 mmol CuSO4 solution and incubate at 37° C. for 3 hr. Stop the reactions by addition of 1.0 mL of 20% trichloroacetic acid. […] Centrifuge samples briefly to pellet undissolved material, and transfer the supernatants to a 96-well microtiter plate. Measure absorbances at 540 nm using a Biotek model EL311 microplate reader. The nmoles of MDA produced are calculated from a standard curve of 0 to 10 nmoles of MDA prepared from malonaldehyde bis(dimethylacetal). Serum samples from treated rats are compared to serum samples from control rats that received no MDL compound.
# [3] = Animal parameters (food, body weight, liver weight, mortality) in male Sprague-Dawley rats; assay type: in vivo; details: for mortality at 96 h: po, read-out: mortality (deaths per group); for mortality at 96 h / body wt., percent of control / lw/bw (liver weight/body weight), percent of control: rat
# Excerpt: as §1
# VCAM-1 = details: vascular endothelial cells; Mauri, N. et al.; cited from earlier work
# ICAM-1 = details: vascular endothelial cells; Mauri, N. et al.; cited from earlier work
# [4] = mean N = 5, read-out: Serum Parent (parent compound concentration)
# [5] = rat serum, 0.3% in diet, 4 days, N = 5
# [6] = in vivo, 0.3% in diet, 4 days, N = 5
# [7] = mean N = 5, read-out: Liver Parent (parent compound concentration)
SMILES,Liver Bis (bisphenol concentration) ([1]; 5760 min),Liver Parent (parent compound concentration) ([1]; 5760 min),Liver Quin (diphenoquinone concentration) ([1]; 5760 min),Serum Bis (bisphenol concentration) ([1]; 5760 min),Serum Quin (diphenoquinone concentration) ([1]; 5760 min),"concentration at 96 h [1, 4]","ALP (alkaline phosphatase), percent of control (Male Sprague-Dawley Rats; [5])","ALT (alanine aminotransferase), percent of control (Male Sprague-Dawley Rats; [5])","AST (aspartate aminotransferase), percent of control (Male Sprague-Dawley Rats; [5])","GLUC (glucose), percent of control (Male Sprague-Dawley Rats; rat, in vivo)",response vs control in vivo at 0.3 % in diet [2],"food (grams eaten per day per rat), percent of control ([3]; in vivo)","mortality at 96 h [3, 6]","body wt., percent of control ([3]; in vivo)","food (grams eaten per day per rat), percent of control ([3]; 0.3% in diet, 4 days, N = 5)","body wt., percent of control ([3]; 0.3% in diet, 4 days, N = 5)","concentration at 96 h [1, 7]",also measured
"CC(C)=CCC[C@H](C)CCOc1ccc(O)c(C(C)(C)C)c1 [103,649]",0,0,0,0,0,1400 ng/mL,74%,119%,82%,101%,29%,95%,0%,94%,–,–,–,"response vs control in vivo at 0.3 % in diet (Male Sprague-Dawley Rats; Rattus norvegicus, feed or water, 96 h, read-out: TRIG (triglycerides), percent of control): 143%"
"CC(C)=CCC[C@H](C)CCSc1ccc(O)c(C(C)(C)C)c1 [103,714]",0,0,0,0,0,2700 ng/mL,111%,120%,104%,95%,21%,–,0%,–,102%,103%,–,–
"CC(C)=CCCC(C)CCSc1cc(C(C)(C)C)c(O)c(C(C)(C)C)c1 (stereo not drawn) [103,960]",–,–,0,0,0,8700 ng/mL,125%,117%,–,110%,24%,105%,0%,–,–,100%,47300 ng/g,"AST (aspartate aminotransferase), percent of control (Male Sprague-Dawley Rats; rat, in vivo): 102%; lw/bw (liver weight/body weight), percent of control ([3]; 0.3% in diet, 4 days, N = 5): 130%"
"CC(C)CCCC(C)CCOc1cc(C(C)(C)C)c(O)c(C(C)(C)C)c1 (stereo not drawn) [104,102]",0,–,0,0,0,32800 ng/mL,–,114%,82%,98%,71%,–,0%,–,92%,97%,481000 ng/g,"ALP (alkaline phosphatase), percent of control (Male Sprague-Dawley Rats; rat, in vivo): 101%"
"CC(C)CCCC(C)CCOc1ccc(O)c(C(C)(C)C)c1 (stereo not drawn) [104,191]",0,–,0,0,0,6900 ng/mL,81%,149%,146%,106%,20%,76%,0%,92%,–,–,16100 ng/g,–
"CC(CCCC(C)(C)O)CCSc1cc(C(C)(C)C)c(O)c(C(C)(C)C)c1 (stereo not drawn) [104,487]",–,–,0,0,0,4100 ng/mL,137%,129%,124%,–,87%,–,0%,–,90%,95%,3800 ng/g,"GLUC (glucose), percent of control (Male Sprague-Dawley Rats; [5]): 92%"
"CC(C)=CCC[C@@H](C)CCOc1cc(C(C)(C)C)c(O)c(C(C)(C)C)c1 [104,535]",0,–,0,0,0,16300 ng/mL,151%,108%,–,–,11%,95%,0%,102%,–,–,60300 ng/g,"GLUC (glucose), percent of control (Male Sprague-Dawley Rats; [5]): 112%; AST (aspartate aminotransferase), percent of control (Male Sprague-Dawley Rats; rat, in vivo): 94%"
"CC(C)=CCC[C@H](C)CCOc1cc(C(C)(C)C)c(O)cc1C(C)(C)C [107,059]",0,0,0,0,0,–,–,–,140%,96%,78%,95%,0%,–,–,95%,–,"Serum Parent (parent compound concentration) ([1]; 5760 min): 0; ALP (alkaline phosphatase), percent of control (Male Sprague-Dawley Rats; rat, in vivo): 118%; ALT (alanine aminotransferase), percent of control (Male Sprague-Dawley Rats; rat, in vivo): 116%; lw/bw (liver weight/body weight), percent of control ([3]; 0.3% in diet, 4 days, N = 5): 107%"
CC(=O)N[C@@H](CS)C(=O)O [N-acetylcysteine],–,–,–,–,–,–,–,–,–,–,–,–,–,–,–,–,–,inhibition of cytokine-induced expression of VCAM-1 (VCAM-1): inhibit cytokine-induced expression of VCAM-1; inhibition of cytokine-induced expression of ICAM-1 (ICAM-1): not ICAM-1
S=C(S)N1CCCC1 [pyrollidine dithiocarbamate],–,–,–,–,–,–,–,–,–,–,–,–,–,–,–,–,–,inhibition of cytokine-induced expression of VCAM-1 (VCAM-1): inhibit cytokine-induced expression of VCAM-1; inhibition of cytokine-induced expression of ICAM-1 (ICAM-1): not ICAM-1
